Test results from patent US5914242A, “Method for diminishing myocardial infarction using protein phosphatase inhibitors” (priority 1997, dated 1999).
Entries after “also recorded” stand apart in the source; their conditions may differ.

Tests used:
[1] = tested on: alkaline protein phosphatase; assay: Effect on alkaline protein phosphatase; format: biochemical
[2] = tested on: protein phosphatase type 2A (PP2A); assay: Protein phosphatase inhibition assay, purified catalytic subunit, [32P]-phosphohistone or phosphorylase a substrate; format: biochemical
Procedure: FIG. 4: Effect of fostriecin on the activity of protein phosphatase type 1 (PP1) and protein phosphatase type 2A (PP2A). The activity of the purified catalytic subunits of PP1 (Δ,s) or PP2A (O,1) was assayed in the presence of the indicated amount of fostriecin. The inhibition assays employed freshly prepared [^32 P]-phosphohistone (open symbols) or [^32 P]phosphorylase A (filled symbols) as substrate and highly purified catalytic subunits of PP1 or PP2A. Assays were conducted in a total volume of 80 μl, and the indicated amount of fostriecin was added to the assay 10 minutes prior to initiation of the reaction by the addition of substrate. Each point represents the mean ± SE (n>6).
Determination of protein phosphatase activity: Protein phosphatase activity against phosphohistone was determined by the quantification of liberated [^32 P] from phosphohistone according to previously established methods (see Honkanen et al., J. Biol. Chem. 265:19401-04 (1990); Honkanen et al., Mol. Pharmacol. 40:577-83 (1991); and Critz and Honkanen, Neuroprotocols 6:78-83 (1995)). Assays (80 μl final volume) were conducted in 50 mM Tris-buffer (pH 7.4) containing 0.5 mM DTT, 4 mM EDTA, and phosphoprotein (2 μM PO4). The assay was initiated by the addition of substrate (30 μl) to a 1.5 ml microfuge tube containing 50 μl of dilute homogenate. Assays were conducted at 30° C. for 10 minutes and were stopped by the addition of 100 μl of 1N H2 SO4 containing 1 mM K2 HPO4. [^32 P]Phosphate liberated by the enzyme was then extracted as a phosphomolybdate complex and measured according to the methods of Killilea et al., Arch. Biochem. Biophys. 191:638-46 (1978)). Briefly, free phosphate was extracted by adding 20 μl of ammonium molybdate (7.5% w/v in 1.4 N H2 SO4) and 250 μl of isobutanol:benzine (1:1, v/v) to each tube. The tubes were mixed vigorously for approximately 10 seconds followed by centrifugation at 14,000×g for 2 minutes. Aliquots of the upper phase (100 μl) were removed for counting, and radioactivity was quantified with a scintillation counter.
For inhibition studies, the indicated amount of fostriecin or okadaic acid was added to the enzyme mixture 10 minutes before the reaction was initiated with the addition of substrate. Controls received solvent alone, and in all experiments the amount of enzyme was diluted to ensure that the samples were below the titration endpoint. The titration endpoint is defined as the concentration of enzyme after which further dilution no longer affects the IC50 of the toxin, and represents a point where the concentration of enzyme used in the assay no longer approaches that of the toxin. This ensures that IC50 represents the potency of the inhibitor alone and is not representative of a combination of potency of the toxin and titration artifacts of the assay system. Preliminary assays were also performed to ensure the dephosphorylation reaction was linear with respect to enzyme concentration and time.
The catalytic subunit of PP2A was purified to apparent homogeneity according to established methods as described by Pallas et al., Cell 60:167-176 (1990) using G-75 Sephadex in the place of Ultrogel-AcA44 as previously reported in Brautigan et al., J. Biol. Chem. 260:4295-02 and Honkanen et al., Mol. Pharmacol 40:577-83 (1991). PP1 and PP2A both are now also available from several commercial sources.

isolated rabbit hearts = assay: Controlled coronary occlusion in isolated perfused (Langendorff) rabbit hearts, infarct size as % of risk zone; details: for infarct size, % of the risk zone: control 33%
Procedure: New Zealand white rabbits were anesthetized with intravenous sodium pentobarbital (30 mg/kg). The trachea was intubated and mechanical ventilation was achieved. After a left thoracotomy, a snare was passed around the coronary artery and the hearts were excised quickly, mounted on a Langendorff apparatus and perfused at 75 mm Hg pressure with non-recirculating Krebs buffer containing 118.5 mM NaCl, 4.7 mM KCl, 1.2 mM MgSO4, 1.2 mM KH2 PO4, 24.8 mM NaHCO3, 2.5 mM CaCl2, and 10 mM glucose. The Krebs buffer was gassed with 95% O2 /5% CO2 resulting in a pH of 7.4-7.5. The temperature of the perfusate was maintained at 37° C.
A fluid-filled latex balloon connected to a transducer with PE240 tubing was inserted into the left ventricle. The balloon volume was adjusted to set the left ventricular diastolic pressure equal to 5-10 mm Hg at the beginning of the experiment. Total coronary artery flow was measured by timed collection of perfusate dripping from the heart with a graduated cylinder.
The coronary artery was occluded for 30 minutes and reperfused for 2 hours. Fostriecin was mixed with oxygenated perfusate in a separate reservoir to a concentration of 1 μM. Treatment was begun by opening the line from the drug-laden reservoir and closing the line from the reservoir containing pure buffer. After 2 hours of reperfusion, the coronary artery was re-occluded, and 1-10 μm zinc cadmium sulfide fluorescent particles (Duke Scientific, Palo Alto, Calif.) were infused into the perfusate to demarcate the risk zone. The heart was removed, weighed, frozen, and cut into 2 mm thick slices. The slices were thawed and stained by incubation for 20 minutes at 37° C. in 1% triphenyltetrazolium chloride (TTC) in pH 7.4 buffer. The areas of infarct (TTC negative) and risk zone (non-fluorescent under ultraviolet light) were determined by planimetry. Infarct and risk zone volumes were calculated by multiplying each area by the slice thickness and summing the products. Infarct size for each heart was expressed as a percentage of the risk zone infarcted. In an untreated rabbit heart approximately 33% of the ischemic tissue infarcts in this model.
Employing the well-characterized rabbit model described herein in Example 1, a controlled coronary occlusion was employed to induce reproducibly myocardial infarctions in isolated hearts. Defining the risk zone as the tissue normally supplied with oxygenated blood by the coronary artery before it is occluded, a 30 minute coronary occlusion produces an infarction that averages 33% of the risk zone (see data for control rabbits; FIG. 1). When the isolated hearts were treated with 1 μM fostriecin administered 15 minutes prior to the onset of ischemia and present during the 30 minute ischemic period, a significant decrease in infarct size to 9% of the risk zone was obtained (FIG. 1). This level of protection is equivalent to that seen in ischemic preconditioning (see Cohen M. V., et al., Cardiol. Rev. 3(3):137-49 (1995)), and represents a substantial decrease in the amount of myocardial tissue damaged.
Since the onset of a myocardial infarction usually cannot be predicted, a compound that provides protection when administered after the onset of ischemia is clinically far more useful than a compound that is effective only if administered before the coronary occlusion. […] The addition of 10 μM fostriecin 10 minutes after the onset of ischemia decreased infarction size to 19% of the risk zone. […]

CC(O)(/C=C/C1CC=CC(=O)O1)C(CC(O)\C=C/C=C\C=C\CO)OP(=O)(O)O (stereo not drawn) [fostriecin]
effect on alkaline protein phosphatase [1]: no effect
inhibition of PP2A at the protective concentration ([2]; 1-10 μM fostriecin): inhibits the activity of PP2A; also recorded: inhibits PP2A completely
inhibition of PP2A catalytic subunit ([2]; phosphohistone and phosphorylase-a substrates): inhibited by fostriecin in a dose-dependent manner
concentration inhibiting PP2A relative to PP1 ([2]; purified catalytic subunits): at a lower concentration than PP1
infarct size, % of the risk zone (isolated rabbit hearts; 1 μM fostriecin from 15 minutes prior to ischemia and during 30-minute coronary occlusion): 9 % of the risk zone
infarct size, % of the risk zone (isolated rabbit hearts; 10 μM fostriecin added 10 minutes after onset of 30-minute ischemia): 19 % of the risk zone
inhibition at 10 µM (isolated rabbit hearts; Oryctolagus cuniculus, 10 min, 10 μM fostriecin added 10 minutes after onset of ischemia, read-out: infarction smaller than in untreated hearts): 43%
hemodynamic effects (isolated rabbit hearts; isolated rabbit heart perfused with 1 μM fostriecin): No hemodynamic effects were observed
concentration found to provide protection (isolated rabbit hearts; perfused rabbit hearts): 1 to 10 µM
